The text below walks through data of ChEMBL document CHEMBL5291721, “A preclinical secondary pharmacology resource illuminates target-adverse drug reaction associations of marketed drugs” (Nat Commun, 2023).

Structures are written as SMILES. Where only a bound is given, the exact number is not on record here.

For assay [1], the target named is T1, Alpha-1A adrenergic receptor (Homo sapiens, UniProt P35348).
T1 sequence (P35348 whole entry): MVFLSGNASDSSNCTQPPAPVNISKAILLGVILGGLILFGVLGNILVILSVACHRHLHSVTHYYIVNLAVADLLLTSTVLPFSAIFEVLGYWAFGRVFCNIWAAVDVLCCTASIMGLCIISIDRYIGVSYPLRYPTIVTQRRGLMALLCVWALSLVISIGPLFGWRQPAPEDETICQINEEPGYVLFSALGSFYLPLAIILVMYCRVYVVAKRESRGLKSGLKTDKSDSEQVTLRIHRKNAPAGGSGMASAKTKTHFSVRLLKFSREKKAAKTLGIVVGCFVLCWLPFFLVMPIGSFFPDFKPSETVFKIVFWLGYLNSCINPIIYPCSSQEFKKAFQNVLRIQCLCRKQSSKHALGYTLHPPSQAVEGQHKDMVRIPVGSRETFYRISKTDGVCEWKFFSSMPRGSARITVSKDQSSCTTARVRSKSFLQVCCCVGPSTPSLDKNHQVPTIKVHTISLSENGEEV
In kind it is functional, cell-based.

For assay [2], the target named is T2, Muscarinic acetylcholine receptor M1 (Homo sapiens, UniProt P11229).
T2 sequence (P11229 whole entry): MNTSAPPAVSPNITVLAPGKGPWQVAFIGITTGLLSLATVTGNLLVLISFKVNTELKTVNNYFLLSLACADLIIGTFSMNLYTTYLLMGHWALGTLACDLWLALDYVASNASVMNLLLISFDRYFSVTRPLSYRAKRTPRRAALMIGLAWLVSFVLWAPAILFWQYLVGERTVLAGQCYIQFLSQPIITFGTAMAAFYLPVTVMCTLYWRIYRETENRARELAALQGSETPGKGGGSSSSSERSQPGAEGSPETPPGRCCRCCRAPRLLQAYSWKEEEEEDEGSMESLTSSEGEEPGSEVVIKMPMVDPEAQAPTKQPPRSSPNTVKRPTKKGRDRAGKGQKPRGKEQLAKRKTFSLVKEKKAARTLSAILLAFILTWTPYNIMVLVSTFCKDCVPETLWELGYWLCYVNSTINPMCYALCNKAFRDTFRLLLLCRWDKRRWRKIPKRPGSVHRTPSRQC
The assay is classed as functional, cell-based.

Assay [3] has as its target D(3) dopamine receptor (Homo sapiens, UniProt P35462).
The target of assay [4] is T3, Estrogen receptor (Homo sapiens, UniProt P03372).
T3 sequence (P03372 whole entry): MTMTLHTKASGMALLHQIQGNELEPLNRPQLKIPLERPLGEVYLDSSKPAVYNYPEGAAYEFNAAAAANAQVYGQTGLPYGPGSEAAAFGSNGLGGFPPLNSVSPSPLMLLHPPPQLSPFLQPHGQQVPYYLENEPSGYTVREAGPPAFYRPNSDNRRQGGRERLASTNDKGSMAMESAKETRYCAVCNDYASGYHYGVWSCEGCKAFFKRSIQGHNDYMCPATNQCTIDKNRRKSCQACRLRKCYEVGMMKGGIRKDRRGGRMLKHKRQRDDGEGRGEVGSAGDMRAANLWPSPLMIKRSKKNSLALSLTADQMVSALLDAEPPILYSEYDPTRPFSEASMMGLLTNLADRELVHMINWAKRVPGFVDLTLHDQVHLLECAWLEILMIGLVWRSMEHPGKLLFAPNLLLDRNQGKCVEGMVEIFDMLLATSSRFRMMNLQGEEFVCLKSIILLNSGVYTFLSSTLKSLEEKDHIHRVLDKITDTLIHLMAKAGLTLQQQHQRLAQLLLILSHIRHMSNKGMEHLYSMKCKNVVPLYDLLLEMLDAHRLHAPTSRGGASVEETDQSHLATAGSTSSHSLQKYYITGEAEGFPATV

Assay [5] deals with Gamma-aminobutyric acid receptor subunit alpha-1/alpha-2/beta-2/gamma-2 (Homo sapiens, UniProt P14867+P18507+P47869+P47870). In kind it is protein-complex assay.
Gamma-aminobutyric acid receptor subunit alpha-1/alpha-2/beta-2/gamma-2, sequence (P14867 whole entry): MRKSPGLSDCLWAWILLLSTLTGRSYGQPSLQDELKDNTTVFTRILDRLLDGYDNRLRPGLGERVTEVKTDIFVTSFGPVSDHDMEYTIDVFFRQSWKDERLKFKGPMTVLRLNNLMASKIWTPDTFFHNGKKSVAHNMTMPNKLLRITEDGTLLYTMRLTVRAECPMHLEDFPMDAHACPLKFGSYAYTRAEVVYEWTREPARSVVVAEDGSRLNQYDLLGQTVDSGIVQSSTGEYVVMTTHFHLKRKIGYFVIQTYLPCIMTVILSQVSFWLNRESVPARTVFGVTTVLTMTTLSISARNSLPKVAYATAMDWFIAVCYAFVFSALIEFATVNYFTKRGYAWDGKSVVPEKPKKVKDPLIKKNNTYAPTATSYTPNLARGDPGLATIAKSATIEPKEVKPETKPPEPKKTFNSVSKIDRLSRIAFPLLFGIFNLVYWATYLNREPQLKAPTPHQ
Gamma-aminobutyric acid receptor subunit alpha-1/alpha-2/beta-2/gamma-2, sequence (P47870 whole entry): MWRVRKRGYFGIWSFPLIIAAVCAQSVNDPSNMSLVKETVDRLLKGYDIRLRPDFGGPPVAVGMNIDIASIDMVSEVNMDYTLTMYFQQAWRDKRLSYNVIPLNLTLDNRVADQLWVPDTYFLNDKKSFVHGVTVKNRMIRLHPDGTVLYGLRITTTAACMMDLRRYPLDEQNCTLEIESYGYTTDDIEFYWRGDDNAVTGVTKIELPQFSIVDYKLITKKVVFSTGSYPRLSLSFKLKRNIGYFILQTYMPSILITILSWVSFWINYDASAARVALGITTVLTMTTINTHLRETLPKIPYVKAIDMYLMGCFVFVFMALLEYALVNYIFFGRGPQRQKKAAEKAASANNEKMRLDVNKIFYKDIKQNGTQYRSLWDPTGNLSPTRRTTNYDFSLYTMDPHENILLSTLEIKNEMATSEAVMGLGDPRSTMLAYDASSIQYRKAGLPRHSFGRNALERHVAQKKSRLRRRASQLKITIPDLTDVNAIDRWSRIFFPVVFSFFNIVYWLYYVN
Gamma-aminobutyric acid receptor subunit alpha-1/alpha-2/beta-2/gamma-2, sequence (P18507 whole entry): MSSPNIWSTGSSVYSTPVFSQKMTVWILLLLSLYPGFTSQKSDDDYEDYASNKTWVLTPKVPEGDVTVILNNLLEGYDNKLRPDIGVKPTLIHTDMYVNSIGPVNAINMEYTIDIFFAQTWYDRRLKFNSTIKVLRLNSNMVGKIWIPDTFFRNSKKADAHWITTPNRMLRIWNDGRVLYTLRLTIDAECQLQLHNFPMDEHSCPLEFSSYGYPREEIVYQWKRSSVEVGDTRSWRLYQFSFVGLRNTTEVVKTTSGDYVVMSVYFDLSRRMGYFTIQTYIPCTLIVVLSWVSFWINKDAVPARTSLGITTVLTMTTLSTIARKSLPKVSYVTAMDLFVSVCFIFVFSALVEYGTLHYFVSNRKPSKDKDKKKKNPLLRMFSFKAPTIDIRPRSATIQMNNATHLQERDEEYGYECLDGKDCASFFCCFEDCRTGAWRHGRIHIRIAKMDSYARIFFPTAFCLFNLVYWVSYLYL
Gamma-aminobutyric acid receptor subunit alpha-1/alpha-2/beta-2/gamma-2, sequence (P47869 whole entry): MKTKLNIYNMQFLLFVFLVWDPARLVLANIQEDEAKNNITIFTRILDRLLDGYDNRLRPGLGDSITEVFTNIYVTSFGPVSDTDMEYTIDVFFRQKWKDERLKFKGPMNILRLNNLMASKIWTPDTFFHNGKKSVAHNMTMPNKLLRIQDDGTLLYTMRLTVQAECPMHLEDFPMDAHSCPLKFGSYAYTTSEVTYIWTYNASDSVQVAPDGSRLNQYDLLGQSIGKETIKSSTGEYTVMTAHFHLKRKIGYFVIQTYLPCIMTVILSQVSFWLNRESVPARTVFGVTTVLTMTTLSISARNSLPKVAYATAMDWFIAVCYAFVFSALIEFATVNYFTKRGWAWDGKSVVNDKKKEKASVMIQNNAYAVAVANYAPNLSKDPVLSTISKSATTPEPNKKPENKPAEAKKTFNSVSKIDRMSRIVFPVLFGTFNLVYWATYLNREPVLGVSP
For assay [6], the target named is Beta-2 adrenergic receptor (Homo sapiens, UniProt P07550). In kind it is functional, cell-based.
Beta-2 adrenergic receptor, sequence (P07550 whole entry): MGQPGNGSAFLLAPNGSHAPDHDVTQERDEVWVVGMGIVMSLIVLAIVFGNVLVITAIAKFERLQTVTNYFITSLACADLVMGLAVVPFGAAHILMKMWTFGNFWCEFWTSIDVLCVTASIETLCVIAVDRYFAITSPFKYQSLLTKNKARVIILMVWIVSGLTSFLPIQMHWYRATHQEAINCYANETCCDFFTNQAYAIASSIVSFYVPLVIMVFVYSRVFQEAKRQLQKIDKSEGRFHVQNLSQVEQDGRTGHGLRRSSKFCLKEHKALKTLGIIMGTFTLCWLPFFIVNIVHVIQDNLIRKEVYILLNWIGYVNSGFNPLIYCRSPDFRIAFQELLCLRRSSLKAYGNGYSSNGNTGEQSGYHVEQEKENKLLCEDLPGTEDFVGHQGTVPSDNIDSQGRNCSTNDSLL
Assay [7] addresses Gamma-aminobutyric acid receptor subunit alpha-1 (Rattus norvegicus, UniProt P62813).
Assay [8] deals with Histamine H1 receptor (Homo sapiens, UniProt P35367).
Histamine H1 receptor, sequence (P35367 whole entry): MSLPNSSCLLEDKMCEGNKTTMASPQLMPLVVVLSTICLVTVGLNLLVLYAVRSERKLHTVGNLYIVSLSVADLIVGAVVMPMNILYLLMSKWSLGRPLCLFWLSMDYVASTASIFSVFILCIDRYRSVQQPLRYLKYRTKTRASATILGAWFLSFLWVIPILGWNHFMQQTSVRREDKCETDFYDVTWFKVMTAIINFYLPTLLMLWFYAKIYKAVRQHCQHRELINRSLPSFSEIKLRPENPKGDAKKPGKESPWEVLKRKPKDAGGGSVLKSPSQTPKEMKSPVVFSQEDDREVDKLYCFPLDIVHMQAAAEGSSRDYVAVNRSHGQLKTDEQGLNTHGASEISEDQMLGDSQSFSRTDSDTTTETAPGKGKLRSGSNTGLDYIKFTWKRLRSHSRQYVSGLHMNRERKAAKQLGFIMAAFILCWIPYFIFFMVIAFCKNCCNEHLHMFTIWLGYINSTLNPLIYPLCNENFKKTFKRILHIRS
Also: assay procedure not described here.

D(3) dopamine receptor, sequence (P35462 whole entry): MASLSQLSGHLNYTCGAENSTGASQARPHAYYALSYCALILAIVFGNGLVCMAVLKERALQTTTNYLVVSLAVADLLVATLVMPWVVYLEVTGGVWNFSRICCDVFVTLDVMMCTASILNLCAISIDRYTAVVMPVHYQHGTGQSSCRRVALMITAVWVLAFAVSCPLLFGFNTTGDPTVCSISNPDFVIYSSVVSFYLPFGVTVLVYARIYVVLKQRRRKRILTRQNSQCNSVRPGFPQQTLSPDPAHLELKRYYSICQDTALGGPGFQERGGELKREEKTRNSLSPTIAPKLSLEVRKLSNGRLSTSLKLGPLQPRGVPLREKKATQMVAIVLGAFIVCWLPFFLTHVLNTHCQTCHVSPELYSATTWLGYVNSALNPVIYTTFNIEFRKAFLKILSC
Gamma-aminobutyric acid receptor subunit alpha-1, sequence (P62813 whole entry): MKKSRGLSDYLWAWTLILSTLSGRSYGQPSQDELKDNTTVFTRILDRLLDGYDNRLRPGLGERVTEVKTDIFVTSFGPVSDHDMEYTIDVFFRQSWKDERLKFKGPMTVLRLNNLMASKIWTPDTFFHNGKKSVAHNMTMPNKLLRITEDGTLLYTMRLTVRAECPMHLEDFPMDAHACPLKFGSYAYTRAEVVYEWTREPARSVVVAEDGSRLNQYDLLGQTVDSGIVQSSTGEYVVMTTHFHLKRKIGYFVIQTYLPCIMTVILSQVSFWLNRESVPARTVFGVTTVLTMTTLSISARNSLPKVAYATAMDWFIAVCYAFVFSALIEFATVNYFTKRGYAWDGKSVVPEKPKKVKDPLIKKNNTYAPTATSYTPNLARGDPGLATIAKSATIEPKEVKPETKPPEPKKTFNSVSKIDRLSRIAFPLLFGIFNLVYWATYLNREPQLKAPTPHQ

Turning to `CC(=O)Oc1c(C)c(C)c2c(c1C)CC[C@@](C)(CCC[C@H](C)CCC[C@H](C)CCCC(C)C)O2`, the AC50 in assay [1], in assay [2], in assay [3], in assay [4] and in assay [5] was above 30 µM in each case.
For the compound `CCOC(=O)[C@H](CCc1ccccc1)N[C@@H](C)C(=O)N1CC2(C[C@H]1C(=O)O)SCCS2`, the AC50 in assay [1], in assay [2], in assay [3] and in assay [5] was above 30 µM throughout.
As to `CC(=O)c1ccc2c(c1)N(CCCN(C)C)c1ccccc1S2` [ACEPROMAZINE], the AC50 (usually the concentration giving half of the maximal activity seen) in assay [1] is 0.003 µM; in assay [2], 0.151 µM; in assay [3] it was 0.0087 µM; in assay [4], above 30 µM; in assay [5], above 30 µM.
`N=c1ccn2c(n1)O[C@H]1[C@H](O)[C@@H](CO)O[C@H]12` [ANCITABINE]: the AC50 in assay [1], in assay [2], in assay [3], in assay [4] and in assay [5] was above 30 µM in each case.
Consider `CCCNC(C)C(=O)Nc1c(C)csc1C(=O)OC` (stereo not drawn) [ARTICAINE], for which the AC50 in assay [1], in assay [2], in assay [3], in assay [4] and in assay [5] was above 30 µM throughout.
For the compound `CCCC1O[C@@H]2C[C@H]3[C@@H]4CCC5=CC(=O)C=C[C@]5(C)[C@H]4[C@@H](O)C[C@]3(C)[C@]2(C(=O)CO)O1` (stereo partly drawn) [BUDESONIDE], the AC50 in assay [1], in assay [3] and in assay [5] was above 30 µM each time.
For the compound `CC(C)(C)C(=O)C(Oc1ccc(Cl)cc1)n1ccnc1` (stereo not drawn) [CLIMBAZOLE], the AC50 in assay [1] is 25.6 µM; in assay [2] it was 10.2 µM; in assay [3], above 30 µM; in assay [4] it was above 30 µM; in assay [5], above 30 µM.
Regarding `NNc1nnc(NN)c2ccccc12` [DIHYDRALAZINE], the AC50 in assay [1], in assay [2], in assay [3], in assay [4] and in assay [5] was above 30 µM throughout.
In the case of `CC(C)C[C@H]1C(=O)N2CCC[C@H]2[C@]2(O)O[C@](NC(=O)[C@@H]3C[C@@H]4c5cccc6[nH]cc(c56)C[C@H]4N(C)C3)(C(C)C)C(=O)N12` [DIHYDROERGOCRYPTINE], the AC50 is above 30 µM in assay [2], 0.202 µM in assay [3], above 30 µM in assay [4] and above 30 µM in assay [5].
With `CCN(CC)CCOC(=O)C(c1ccccc1)C1CCCCC1` (stereo not drawn) [DROFENINE], the AC50 in assay [1] was 9.55 µM; in assay [2], 0.0078 µM; in assay [3], 0.217 µM; in assay [4], above 30 µM; in assay [5] it was above 30 µM.
`CC[C@H]1CN2CCc3cc(OC)c(OC)cc3[C@@H]2C[C@@H]1C[C@H]1NCCc2cc(OC)c(OC)cc21` [EMETINE]: the AC50 in assay [6], in assay [3] and in assay [7] was above 30 µM each time.
Consider `COc1ccc(C(=O)Nc2ccccc2CCC2CCCCN2C)cc1` (stereo not drawn) [ENCAINIDE], for which the AC50 in assay [1], in assay [6], in assay [2], in assay [3], in assay [4] and in assay [7] was above 30 µM throughout. The compound also came in with an AC50 in assay [8] above 10 µM.
With `NC1=NCC2c3ccccc3Cc3ccccc3N12` (stereo not drawn) [EPINASTINE], the AC50 is 2.53 µM in assay [1], above 30 µM in assay [2], above 30 µM in assay [3] and 28.3 µM in assay [5].
For the compound `CC(=O)Oc1ccc2c(c1)CC[C@@H]1[C@@H]2CC[C@]2(C)[C@@H](O)CC[C@@H]12` [ESTRADIOL ACETATE], the AC50 was 15 µM in assay [1], 7.24 µM in assay [2], above 30 µM in assay [3] and above 30 µM in assay [5].
On to `O=c1[nH]c(=O)n([C@H]2C[C@H](O)[C@@H](CO)O2)cc1F` [FLOXURIDINE], for which the concentration at half-maximal activity (AC50) in assay [1], in assay [3], in assay [4] and in assay [5] was above 30 µM throughout.
With `O=c1[nH]c(=O)n([C@H]2C[C@H](O)[C@@H](CO)O2)cc1I` [IDOXURIDINE], the AC50 in assay [1], in assay [3] and in assay [5] was above 30 µM in each case.
`O=[N+]([O-])O[C@@H]1CO[C@H]2[C@@H]1OC[C@@H]2O` [ISOSORBIDE MONONITRATE]: the AC50 in assay [1] is above 30 µM; in assay [2], above 30 µM; in assay [3], above 30 µM; in assay [4], above 30 µM; in assay [7], above 30 µM; in assay [8] it was above 10 µM.
With `COc1ccc2c(c1)N(C[C@H](C)CN(C)C)c1ccccc1S2` [LEVOMEPROMAZINE], the AC50 in assay [2] was 0.331 µM; in assay [3], 0.019 µM; in assay [4], above 30 µM; in assay [5], above 30 µM.
As to `Cc1cc(C)c(NC(=O)CN(CC(=O)O)CC(=O)O)c(C)c1Br` [MEBROFENIN], the AC50 in assay [6], in assay [3], in assay [7] and in assay [8] was above 30 µM each time.
For the compound `COc1ccccc1N1CCN(CC(O)COc2cccc3ccccc23)CC1` (stereo not drawn) [NAFTOPIDIL], the AC50 in assay [6] was above 30 µM; in assay [3], 0.04 µM; in assay [7] it was above 30 µM; in assay [8] it was 0.75 µM.
As for `Cc1oc(=O)oc1CN1CCN(c2cc3c(cc2F)c(=O)c(C(=O)O)c2n3C(C)S2)CC1` (stereo not drawn) [PRULIFLOXACIN], the AC50 in assay [6], in assay [3], in assay [4], in assay [7] and in assay [8] was above 30 µM in each case.
Regarding `CC(C)COC(=O)OCN1C(=O)CN(CCN2CC(=O)N(COC(=O)OCC(C)C)C(=O)C2)CC1=O` [SOBUZOXANE], the AC50 in assay [1], in assay [2], in assay [3], in assay [4] and in assay [7] was above 30 µM throughout.
Turning to `Cc1cc(NS(=O)(=O)c2ccc(N)cc2)nc(C)n1` [SULFISOMIDINE], the AC50 in assay [1], in assay [2], in assay [3], in assay [4] and in assay [7] was above 30 µM each time.
As to `COc1cc2c3cc1Oc1cc(ccc1O)C[C@@H]1c4c(cc(OC)c(O)c4Oc4ccc(cc4)C[C@@H]3N(C)CC2)CC[N+]1(C)C` [TUBOCURARINE], the AC50 in assay [1], in assay [3] and in assay [5] was above 30 µM each time.
With `COC1=C(OC)C(=O)C(C/C=C(\C)CC/C=C(\C)CC/C=C(\C)CC/C=C(\C)CC/C=C(\C)CC/C=C(\C)CC/C=C(\C)CC/C=C(\C)CC/C=C(\C)CCC=C(C)C)=C(C)C1=O` [UBIDECARENONE], the AC50 in assay [1], in assay [6], in assay [2], in assay [3], in assay [4] and in assay [7] was above 30 µM each time. The compound further had an AC50 in assay [8] above 30 µM.
`OC[C@@H](O)[C@H](O)[C@@H](O)CO` [XYLITOL]: the AC50 in assay [1], in assay [2], in assay [3] and in assay [5] was above 30 µM throughout.
